The values below come from patent US9193673B2, “Derivatives of mesalazine, process of their preparation and their use in the treatment of intestinal inflammatory diseases” (SOFAR SPA, priority 2010, dated 2015).

A short description of series [1]: Permeability on the Caco2 cellular line. It counts as in vitro ADME. Conditions: human, Caco-2; Apical (pH 6.5) → Basolateral (pH 7.4), Caco2; read-out: Papp A→B (nm/sec) Mean ± SD. As to the method:
(§1) Such study is conducted with the aim of evaluating the capacity of the molecule to permeate the intestinal epithelium and be absorbed thereby evaluating the Papp (apparent permeability coefficient). The Papp of the compound (IV) is compared to that of the known reference standards.

The subject of a further series is Caco2 cellular line. Briefly: Permeability on the Caco2 cellular line. Conditions: A→B, Caco2. It is filed as in vitro ADME. The procedure: as §1
Background: Passage across Caco-2 layers is used to estimate intestinal permeability.

The nature of series [2]: Stability in simulated gastric and simulated intestinal fluids. It is filed as physicochemical. The procedure:
Such study is conducted with the aim of evaluating the stability of the compound (IV) at […] in absence of enzymes of the intestinal bacterial flora.
(§2) The stability of the compound (IV) is compared to that of known reference standards.

Series [3] in a line: Stability in murine intestinal homogenate. It is filed as in vitro ADME, rat. Particulars: rat intestinal homogenate, reference standard (concentration not given). As to the method:
Such study is conducted with the aim of evaluating the stability of the compound (IV) in intestinal homogenate.
as §2

A short description of series [4]: Hydrolysis in rat intestine preserved in different conditions. It counts as in vitro ADME. As to the method:
Such study is conducted with the aim of surveying the stability of the compound (IV) in rat intestine homogenate preserved in different conditions: frozen at […] and at −80° C.
as §2

On to `CC[C@]1(O)C[C@@H]2CN(CCc3c([nH]c4ccccc34)[C@@](C(=O)OC)(c3cc4c(cc3OC)N(C)[C@H]3[C@@](O)(C(=O)OC)[C@H](OC(C)=O)[C@]5(CC)C=CCN6CC[C@]43[C@@H]65)C2)C1` [Vinblastine, reference compound], for which the Papp A→B in series [1] came out at 0.41 ± 0.21 ×10⁻⁶ cm/s. In addition, the “A→B Mean mass balance %” value in the series on Caco2 cellular line is 89%.
For the molecule `CC[C@H]1OC(=O)[C@H](C)[C@@H](O[C@H]2C[C@@](C)(OC)[C@@H](O)[C@H](C)O2)[C@H](C)[C@@H](O[C@@H]2O[C@H](C)C[C@H](N(C)C)[C@H]2O)[C@](C)(O)C[C@@H](C)C(=O)[C@H](C)[C@@H](O)[C@]1(C)O` [Erythromycin, reference compound], the “% Residue” value in series [2] (SGF, 30 min incubation) was 0.2 ± 0.1%; in series [2] (SGF, 60 min incubation), 0.1 ± 0.1%; in series [2] (SIF, 30 min incubation), 98.1 ± 1.4%; in series [2] (SIF, 60 min incubation) it was 100.9 ± 0.4%. In addition, the Residue percentage in series [3] (30 min) is given as 83.5 ± 3.6%; in series [3] (1 hr) it was 84.7 ± 3.6%; in series [3] (2 hrs), 95.0 ± 11.0%; in series [3] (4 hrs), 97.5 ± 2.8%.
Take `O=C(O)CCCc1ccc(N(CCCl)CCCl)cc1` [Chlorambucil, reference compound]: the “% Residue” value was 92.8 ± 2.1% in series [2] (SGF, 30 min incubation); 89.8 ± 1.5% in series [2] (SGF, 60 min incubation); 42.1 ± 0.5% in series [2] (SIF, 30 min incubation); 13.9 ± 0.3% in series [2] (SIF, 60 min incubation). The Residue percentage stood at 49.5 ± 7.8% in series [3] (30 min), 16.9 ± 2.2% in series [3] (1 hr), 1.5 ± 0.1% in series [3] (2 hrs) and 0.20 ± 0.08% in series [3] (4 hrs). Also, the “Stability in rat intestine (residue %)” value in series [4] (fresh homogenate, 15 min) is 75.2 ± 3.8%; in series [4] (fresh homogenate, 30 min), 58.7 ± 2.3%; in series [4] (fresh homogenate, 60 min), 28.0 ± 1.5%; in series [4] (homogenate 4° C., 15 min), 76.5 ± 5.0%; in series [4] (homogenate 4° C., 30 min) it was 53.0 ± 13.9%; in series [4] (homogenate 4° C., 60 min) it was 25.9 ± 5.3%. Besides, the “Stability in rat intestine (residue %)” value in series [4] (intestine −80° C., 15 min) is 73.0 ± 1.2%; in series [4] (intestine −80° C., 30 min), 25.0 ± 6.1%; in series [4] (intestine −80° C., 60 min) it was 6.9 ± 1.4%.
